From patent US12077503B2, “Substituted cyclic amides and their use as herbicides” (FMC CORPORATION, priority 2015, dated 2024)

How the values were obtained:
Format in all cases: in vivo
[1] = tested on: pigweed (Amaranthus retroflexus); experiment: Test A postemergence; details: Amaranthus retroflexus, post-emergence, 240 h, postemergence, read-out: Pigweed plant response rating; for pest or weed control at 125 g/ha: 125 g ai/ha, visual injury on 0 to 100 scale (0 no effect, 100 complete control), approx. 10 d; for pest or weed control at 500 g/ha: 500 g ai/ha, 0 to 100 scale, 0 is no effect, 100 is complete control
Summary of the method: (§1)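 Seeds sprayed preemergence with a directed soil spray, or plants at 2 to 10 cm height and one- to two-leaf stage sprayed postemergence, with test chemicals in a non-phytotoxic solvent mixture containing surfactant, in loam soil–sand blend. Injury rated visually against untreated controls after about 10 d in greenhouse, 0 (no effect) to 100 (complete control).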

[2] = tested on: blackgrass (Alopecurus myosuroides); experiment: Test A postemergence; details: Alopecurus myosuroides, post-emergence, 240 h, postemergence, read-out: Blackgrass plant response rating; for pest or weed control at 125 g/ha: 125 g ai/ha, visual injury on 0 to 100 scale (0 no effect, 100 complete control), approx. 10 d; for pest or weed control at 500 g/ha: 500 g ai/ha, 0 to 100 scale, 0 is no effect, 100 is complete control
Summary of the method: as §1

[3] = tested on: barnyardgrass (Echinochloa crus-galli); experiment: Test A postemergence; details: Echinochloa crus-galli, post-emergence, 240 h, postemergence, read-out: Barnyardgrass plant response rating; for pest or weed control at 125 g/ha: 125 g ai/ha, visual injury on 0 to 100 scale (0 no effect, 100 complete control), approx. 10 d; for pest or weed control at 500 g/ha: 500 g ai/ha, 0 to 100 scale, 0 is no effect, 100 is complete control
Summary of the method: as §1

Kochia (Kochia scoparia) = experiment: Test A postemergence; details: Bassia scoparia, post-emergence, 240 h, postemergence, read-out: Kochia plant response rating; for pest or weed control at 125 g/ha: 125 g ai/ha, visual injury on 0 to 100 scale (0 no effect, 100 complete control), approx. 10 d; for pest or weed control at 500 g/ha: 500 g ai/ha, 0 to 100 scale, 0 is no effect, 100 is complete control
Summary of the method: as §1

[4] = tested on: ryegrass, Italian (Italian ryegrass, Lolium multiflorum); experiment: Test A postemergence; details: Lolium multiflorum, post-emergence, 240 h, postemergence, read-out: Ryegrass, Italian plant response rating; for pest or weed control at 125 g/ha: 125 g ai/ha, visual injury on 0 to 100 scale (0 no effect, 100 complete control), approx. 10 d; for pest or weed control at 500 g/ha: 500 g ai/ha, 0 to 100 scale, 0 is no effect, 100 is complete control
Summary of the method: as §1

[5] = tested on: ragweed (common ragweed, Ambrosia elatior); experiment: Test A postemergence; details: Ambrosia artemisiifolia, post-emergence, 240 h, postemergence, read-out: Ragweed plant response rating; for pest or weed control at 125 g/ha: 125 g ai/ha, visual injury on 0 to 100 scale (0 no effect, 100 complete control), approx. 10 d; for pest or weed control at 500 g/ha: 500 g ai/ha, 0 to 100 scale, 0 is no effect, 100 is complete control
Summary of the method: as §1

corn (Zea mays) = experiment: Test A postemergence; details: Zea mays, post-emergence, 240 h, postemergence, read-out: Corn plant response rating; for plant injury at 125 g/ha: 125 g ai/ha, visual injury on 0 to 100 scale (0 no effect, 100 complete control), approx. 10 d; for plant injury at 500 g/ha: 500 g ai/ha, 0 to 100 scale, 0 is no effect, 100 is complete control
Summary of the method: as §1

[6] = tested on: giant foxtail (Setaria faberii); experiment: Test A postemergence; details: Setaria faberi, post-emergence, 240 h, postemergence, read-out: Foxtail, Giant plant response rating; for pest or weed control at 125 g/ha: 125 g ai/ha, visual injury on 0 to 100 scale (0 no effect, 100 complete control), approx. 10 d; for pest or weed control at 500 g/ha: 500 g ai/ha, 0 to 100 scale, 0 is no effect, 100 is complete control
Summary of the method: as §1

[7] = tested on: Galium (catchweed bedstraw, Galium aparine); experiment: Test A postemergence; details: Galium, post-emergence, 240 h, postemergence, read-out: Galium plant response rating; for pest or weed control at 125 g/ha: 125 g ai/ha, visual injury on 0 to 100 scale (0 no effect, 100 complete control), approx. 10 d; for pest or weed control at 500 g/ha: 500 g ai/ha, 0 to 100 scale, 0 is no effect, 100 is complete control
Summary of the method: as §1

[8] = tested on: wheat (Triticum aestivum); experiment: Test A postemergence; details: Triticum aestivum, post-emergence, 240 h, postemergence, read-out: Wheat plant response rating; for plant injury at 125 g/ha: 125 g ai/ha, visual injury on 0 to 100 scale (0 no effect, 100 complete control), approx. 10 d; for plant injury at 500 g/ha: 500 g ai/ha, 0 to 100 scale, 0 is no effect, 100 is complete control
Summary of the method: as §1

[9] = tested on: barnyardgrass (Echinochloa crus-galli); experiment: Test B flooded paddy test; details: Echinochloa crus-galli, 250 g ai/ha, Flood; 0 to 100 scale where 0 is no effect and 100 is complete control; read-out: Barnyardgrass plant response rating
Summary of the method: (§2)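 2-leaf plants; pots flooded 3 cm over soil; cpd added to paddy water; depth held; greenhouse 13–15 d; visual rating vs controls, 0 = no effect, 100 = complete control.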

[10] = tested on: ducksalad (Heteranthera limosa); experiment: Test B flooded paddy test; details: Heteranthera limosa, 250 g ai/ha, Flood; 0 to 100 scale where 0 is no effect and 100 is complete control; read-out: Ducksalad plant response rating
Summary of the method: as §2

[11] = tested on: sedge, umbrella (small-flower umbrella sedge, Cyperus difformis); experiment: Test B flooded paddy test; details: Cyperus difformis, 250 g ai/ha, Flood; 0 to 100 scale where 0 is no effect and 100 is complete control; read-out: Sedge, Umbrella plant response rating
Summary of the method: as §2

rice (Oryra sativa) = experiment: Test B flooded paddy test; details: Oryza sativa, 250 g ai/ha, Flood; 0 to 100 scale where 0 is no effect and 100 is complete control; read-out: Rice plant response rating
Summary of the method: as §2

[12] = tested on: giant foxtail (Setaria faberii); experiment: Test A preemergence; details: Setaria faberi, pre-emergence, 240 h, preemergence, read-out: Foxtail, Giant plant response rating; for pest or weed control at 125 g/ha: 125 g ai/ha, approx. 10 d; for pest or weed control at 500 g/ha: 500 g ai/ha
Summary of the method: as §1

[13] = 0 to 100 scale where 0 is no effect and 100 is complete control

Structure (SMILES)	pest or weed control at 125 g/ha [1] [%]	pest or weed control at 500 g/ha [1] [%]	pest or weed control at 125 g/ha [2] [%]	pest or weed control at 500 g/ha [2] [%]	pest or weed control at 125 g/ha [3] [%]	pest or weed control at 500 g/ha [3] [%]	pest or weed control at 125 g/ha (Kochia (Kochia scoparia)) [%]	pest or weed control at 500 g/ha (Kochia (Kochia scoparia)) [%]	pest or weed control at 125 g/ha [4] [%]	pest or weed control at 500 g/ha [4] [%]	pest or weed control at 125 g/ha [5] [%]	pest or weed control at 500 g/ha [5] [%]	plant injury at 125 g/ha (corn (Zea mays)) [%]	plant injury at 500 g/ha (corn (Zea mays)) [%]	pest or weed control at 125 g/ha [6] [%]	pest or weed control at 500 g/ha [6] [%]	pest or weed control at 125 g/ha [7] [%]	pest or weed control at 500 g/ha [7] [%]	plant injury at 125 g/ha [8] [%]	plant injury at 500 g/ha [8] [%]	other results
Cc1cc([C@H]2CN(C)C(=O)[C@@H]2C(=O)Nc2cccc(F)c2F)ccc1Br [Compound 1099]	20	50	20	40	70	80	30	60	40	60	0	40	50	60	80	80	50	60	20	50	pest or weed control at 250 g/ha [9]: 0%; pest or weed control at 250 g/ha [10]: 100%; pest or weed control at 250 g/ha [11]: 0%; pest or weed control at 250 g/ha (rice (Oryra sativa)): 0%; pest or weed control at 125 g/ha [12, 13]: 90%; pest or weed control at 500 g/ha ([12]; visual injury rating about 10 d after treatment, 0 to 100 scale (0 no effect, 100 complete control)): 90%
CN1C[C@H](c2csc(C(F)F)c2)[C@@H](C(=O)Nc2ccccc2F)C1=O [Compound 1123]	0	20	30	80	90	90	60	70	30	50	30	50	20	80	90	90	40	50	0	60	pest or weed control at 250 g/ha [9]: 70%; pest or weed control at 250 g/ha [10]: 100%; pest or weed control at 250 g/ha [11]: 0%; pest or weed control at 250 g/ha (rice (Oryra sativa)): 25%; pest or weed control at 125 g/ha [12, 13]: 90%; pest or weed control at 500 g/ha [12, 13]: 90%
